Reference: BindingDB's records for patent US20250368634 (SchroDinger, 2025)

Target: T1, Son of sevenless homolog 1 (Homo sapiens, UniProt Q07889)
T1 sequence (Q07889 whole entry): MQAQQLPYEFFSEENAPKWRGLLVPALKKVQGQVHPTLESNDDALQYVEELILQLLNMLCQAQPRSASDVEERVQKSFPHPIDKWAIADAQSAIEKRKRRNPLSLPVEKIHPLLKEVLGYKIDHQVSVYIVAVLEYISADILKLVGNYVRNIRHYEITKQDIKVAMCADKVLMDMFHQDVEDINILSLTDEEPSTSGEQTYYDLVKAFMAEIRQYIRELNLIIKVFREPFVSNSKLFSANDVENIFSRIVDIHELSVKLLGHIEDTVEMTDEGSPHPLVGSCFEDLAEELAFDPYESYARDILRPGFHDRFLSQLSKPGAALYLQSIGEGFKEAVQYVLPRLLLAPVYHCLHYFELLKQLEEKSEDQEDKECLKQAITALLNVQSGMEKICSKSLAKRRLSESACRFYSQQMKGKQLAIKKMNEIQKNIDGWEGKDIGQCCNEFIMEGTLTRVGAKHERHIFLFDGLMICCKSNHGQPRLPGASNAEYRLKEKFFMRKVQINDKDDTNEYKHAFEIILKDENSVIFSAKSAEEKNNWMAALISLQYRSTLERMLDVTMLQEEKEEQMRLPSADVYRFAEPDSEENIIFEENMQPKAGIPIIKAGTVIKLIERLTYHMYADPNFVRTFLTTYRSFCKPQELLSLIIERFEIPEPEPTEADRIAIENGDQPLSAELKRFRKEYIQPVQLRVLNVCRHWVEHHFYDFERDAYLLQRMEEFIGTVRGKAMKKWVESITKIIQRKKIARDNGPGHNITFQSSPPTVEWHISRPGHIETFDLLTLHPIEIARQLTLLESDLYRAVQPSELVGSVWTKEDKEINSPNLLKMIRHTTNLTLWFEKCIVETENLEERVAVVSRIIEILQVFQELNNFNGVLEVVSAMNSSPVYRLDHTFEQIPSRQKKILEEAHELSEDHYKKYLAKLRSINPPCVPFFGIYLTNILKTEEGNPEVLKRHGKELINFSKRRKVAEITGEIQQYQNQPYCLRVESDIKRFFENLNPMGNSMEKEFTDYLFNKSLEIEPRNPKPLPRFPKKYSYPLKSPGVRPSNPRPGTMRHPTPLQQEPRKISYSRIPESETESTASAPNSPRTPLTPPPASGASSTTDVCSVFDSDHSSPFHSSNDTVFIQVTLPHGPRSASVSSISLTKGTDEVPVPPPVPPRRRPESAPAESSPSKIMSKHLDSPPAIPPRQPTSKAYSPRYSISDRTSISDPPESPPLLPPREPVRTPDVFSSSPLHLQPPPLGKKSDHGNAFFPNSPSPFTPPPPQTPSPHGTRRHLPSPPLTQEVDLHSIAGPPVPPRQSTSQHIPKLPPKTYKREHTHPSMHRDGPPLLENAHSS
Experiment: SOS1-KRas (G12C) FRET Assay
Description: Inhibition of the SOS1: KRAS interaction was measured using purified GST-tagged KRAS (res. 1-169, G12C, purified based on Hillig, et al., Proc Natl Acad Sci USA (2019); 116 (7): 2551-2560) and recombinant His10-SOS1 (res. 564-1049; purified based on Hillig, et al.). The final assay was performed at 20 uL with 0.5 nM SOS1 protein and 2.5 nM KRAS protein in a buffer of PBS, 0.1% BSA, 5 mM MgCl2, 0.0025% Igepal, 100 mM KF, 5 mM DTT in a white 384 square well OptiPlate (PerkinElmer, Cat. 6007290). A 2×KRAS working solution was prepared in an assay buffer containing 5 nM GST-KRAS G12C and 2 nM anti-GST-Eu (K) (Cisbio, Cat. 61GSTKLA) and pre-incubated for 15 minutes at 25° C. Compounds were serially diluted in 100% DMSO from 2 mM (positive control, compound I-13, PCT Publ. No. WO2018/115380) or 20 mM and then diluted 1:20 in assay buffer before incubation with a solution of SOS1 protein mixed 1:5 with anti-6His-XL665 FRET […] (Cisbio, Cat. 61HISXL) for 15 minutes at 25° C. before addition of 2×KRAS working solution. The final DMSO concentration is 0.5%. Plates were incubated at RT for 2 hrs before the FRET signal was measured using Envision at emission 665 nm and 615 nm.

- IC50: 19.8 nM
SMILES: C[C@@H](NC(=O)c1cc(N2CCOCC2)c(F)cc1N[C@H]1[C@@H]2CN(C)C[C@@H]21)c1cccc(C(F)F)c1F [US20250368634, Example 55]
